In ChEMBL document CHEMBL1926664, “Synthesis and antiproliferative evaluation of 6-aryl-11-iminoindeno[1,2-c]quinoline derivatives” (2011):
The source made the active and inactive calls. The calls are words filed in the database; no cut-off is given here.

Key:
[1] = Cell cycle arrest in human Hep3B cells assessed as accumulation at S phase at 5 uM after 12 hrs using propidium iodide staining by flow cytometry (reference value: 12.2%); assay type: functional, cell-based; conditions: Hep 3B2
[2] = Cell cycle arrest in human Hep3B cells assessed as accumulation at S phase at 10 uM after 12 hrs using propidium iodide staining by flow cytometry (reference value: 12.2%); assay type: functional, cell-based; conditions: Hep 3B2
[3] = Cell cycle arrest in human Hep3B cells assessed as accumulation at G2/M phase at 1 uM after 12 hrs using propidium iodide staining by flow cytometry (reference value: 16.2 %); assay type: functional, cell-based; conditions: Hep 3B2
[4] = Cell cycle arrest in human Hep3B cells assessed as accumulation at G2/M phase at 5 uM after 12 hrs using propidium iodide staining by flow cytometry (reference value: 16.2 %); assay type: functional, cell-based; conditions: Hep 3B2
[5] = Cell cycle arrest in human Hep3B cells assessed as accumulation at G2/M phase at 10 uM after 12 hrs using propidium iodide staining by flow cytometry (reference value: 16.2 %); assay type: functional, cell-based; conditions: Hep 3B2
[6] = test system: HepG2; experiment: Induction of apoptosis in human HepG2 cells assessed as cell shrinking at 5 uM after 12 hrs by light microscopic method; assay type: functional, cell-based
[7] = test system: Hep 3B2; experiment: Induction of apoptosis in human Hep3B cells assessed as cell shrinking at 5 uM after 12 hrs by light microscopic method; assay type: functional, cell-based
[8] = test system: HepG2; experiment: Induction of apoptosis in human HepG2 cells assessed as increased expression of Bax protein at 1 to 10 uM after 12 hrs by immunoblot; assay type: functional, cell-based
[9] = test system: HepG2; experiment: Induction of apoptosis in human HepG2 cells assessed as Bcl-2 level at 1 to 10 uM after 12 hrs by chemiluminescence blotting method; assay type: functional, cell-based
[10] = test system: HepG2; experiment: Induction of apoptosis in human HepG2 cells assessed as increase in caspase-8 level at 1 to 10 uM after 12 hrs by chemiluminescence blotting method; assay type: functional, cell-based
[11] = test system: HepG2; experiment: Induction of apoptosis in human HepG2 cells assessed as increase in expression of p53 protein at 1 to 10 uM after 12 hrs by chemiluminescence blotting method; assay type: functional, cell-based
[12] = test system: Hep 3B2; experiment: Growth inhibition of human Hep3B cells assessed as assessed as suppression of cell viability at 5 uM after 12 hrs by XTT assay; assay type: functional, cell-based
[13] = test system: Hep 3B2; experiment: Growth inhibition of human Hep3B cells at 0.1 to 5 uM by XTT assay; assay type: functional, cell-based; conditions: TDE = time-dependent effect
[14] = test system: HepG2; experiment: Growth inhibition of human HepG2 cells assessed as suppression of cell viability at 5 uM after 12 hrs by XTT assay; assay type: functional, cell-based
[15] = test system: HepG2; experiment: Growth inhibition of human HepG2 cells at 0.1 to 5 uM by XTT assay; assay type: functional, cell-based; conditions: TDE = time-dependent effect
[16] = test system: HepG2; experiment: Growth inhibition of human HepG2 cells after 12 to 72 hrs by XTT assay; assay type: functional, cell-based
[17] = test system: Hep 3B2; experiment: Growth inhibition of human Hep3B cells after 12 to 72 hrs by XTT assay; assay type: functional, cell-based
[18] = test system: MCF7; experiment: Growth inhibition of human MCF7 cells after 72 hrs by XTT assay; assay type: functional; conditions: MCF7, 72 h
[19] = test system: MDA-MB-231; experiment: Growth inhibition of human MDA-MB-231 cells after 72 hrs by XTT assay; assay type: functional; conditions: MDA-MB-231, 72 h
[20] = test system: A549; experiment: Growth inhibition of human A549 cells after 72 hrs by XTT assay; assay type: functional; conditions: A549, 72 h
[21] = Growth inhibition of human H1299 cells after 72 hrs by XTT assay; assay type: functional; conditions: NCI-H1299, 72 h
[22] = test system: HepG2; experiment: Growth inhibition of human HepG2 cells after 72 hrs by XTT assay; assay type: functional; conditions: HepG2, 72 h
[23] = Growth inhibition of human Hep3B cells after 72 hrs by XTT assay; assay type: functional, Hep 3B2
[24] = test system: HepG2; experiment: Cell cycle arrest in human HepG2 cells assessed as accumulation at sub-G1 phase at 1 uM after 12 hrs using propidium iodide staining by flow cytometry (reference value: 3.6%); assay type: functional
[25] = test system: HepG2; experiment: Cell cycle arrest in human HepG2 cells assessed as accumulation at sub-G1 phase at 5 uM after 12 hrs using propidium iodide staining by flow cytometry (reference value: 3.6%); assay type: functional
[26] = test system: HepG2; experiment: Cell cycle arrest in human HepG2 cells assessed as accumulation at sub-G1 phase at 10 uM after 12 hrs using propidium iodide staining by flow cytometry (reference value: 3.6%); assay type: functional
[27] = test system: HepG2; experiment: Cell cycle arrest in human HepG2 cells assessed as accumulation at G1 phase at 1 uM after 12 hrs using propidium iodide staining by flow cytometry (reference value: 67.5%); assay type: functional
[28] = test system: HepG2; experiment: Cell cycle arrest in human HepG2 cells assessed as accumulation at G1 phase at 5 uM after 12 hrs using propidium iodide staining by flow cytometry (reference value: 67.5%); assay type: functional
[29] = test system: HepG2; experiment: Cell cycle arrest in human HepG2 cells assessed as accumulation at G1 phase at 10 uM after 12 hrs using propidium iodide staining by flow cytometry (reference value: 67.5%); assay type: functional
[30] = test system: HepG2; experiment: Cell cycle arrest in human HepG2 cells assessed as accumulation at S phase at 1 uM after 12 hrs using propidium iodide staining by flow cytometry (reference value: 13.8%); assay type: functional
[31] = test system: HepG2; experiment: Cell cycle arrest in human HepG2 cells assessed as accumulation at S phase at 5 uM after 12 hrs using propidium iodide staining by flow cytometry (reference value: 13.8%); assay type: functional
[32] = test system: HepG2; experiment: Cell cycle arrest in human HepG2 cells assessed as accumulation at S phase at 10 uM after 12 hrs using propidium iodide staining by flow cytometry (reference value: 13.8%); assay type: functional
[33] = test system: HepG2; experiment: Cell cycle arrest in human HepG2 cells assessed as accumulation at G2/M phase at 1 uM after 12 hrs using propidium iodide staining by flow cytometry (reference value: 18.7 %); assay type: functional
[34] = test system: HepG2; experiment: Cell cycle arrest in human HepG2 cells assessed as accumulation at G2/M phase at 5 uM after 12 hrs using propidium iodide staining by flow cytometry (reference value: 18.7 %); assay type: functional
[35] = test system: HepG2; experiment: Cell cycle arrest in human HepG2 cells assessed as accumulation at G2/M phase at 10 uM after 12 hrs using propidium iodide staining by flow cytometry (reference value: 18.7 %); assay type: functional
[36] = Cell cycle arrest in human Hep3B cells assessed as accumulation at sub-G1 phase at 1 uM after 12 hrs using propidium iodide staining by flow cytometry (reference value: 2.1%); assay type: functional, cell-based; conditions: Hep 3B2
[37] = Cell cycle arrest in human Hep3B cells assessed as accumulation at sub-G1 phase at 5 uM after 12 hrs using propidium iodide staining by flow cytometry (reference value: 2.1%); assay type: functional, cell-based; conditions: Hep 3B2
[38] = Cell cycle arrest in human Hep3B cells assessed as accumulation at sub-G1 phase at 10 uM after 12 hrs using propidium iodide staining by flow cytometry (reference value: 2.1%); assay type: functional, cell-based; conditions: Hep 3B2
[39] = Cell cycle arrest in human Hep3B cells assessed as accumulation at G1 phase at 1 uM after 12 hrs using propidium iodide staining by flow cytometry (reference value: 71.6%); assay type: functional, cell-based; conditions: Hep 3B2
[40] = Cell cycle arrest in human Hep3B cells assessed as accumulation at G1 phase at 5 uM after 12 hrs using propidium iodide staining by flow cytometry (reference value: 71.6%); assay type: functional, cell-based; conditions: Hep 3B2
[41] = Cell cycle arrest in human Hep3B cells assessed as accumulation at G1 phase at 10 uM after 12 hrs using propidium iodide staining by flow cytometry (reference value: 71.6%); assay type: functional, cell-based; conditions: Hep 3B2
[42] = Cell cycle arrest in human Hep3B cells assessed as accumulation at S phase at 1 uM after 12 hrs using propidium iodide staining by flow cytometry (reference value: 12.2%); assay type: functional, cell-based; conditions: Hep 3B2

GI50 [18]: 6460 nM | GI50 [19]: 650 nM | GI50 [20]: 550 nM | GI50 [22]: 640 nM
SMILES: CN(C)CCCO/N=C1\c2cc(O)ccc2-c2c(-c3ccc(OCCCN(C)C)cc3)nc3ccc(F)cc3c21
Activity [1]: 17.4% | Activity [2]: 15.2% | Activity [3]: 30.7% | Activity [4]: 18.1% | Activity [5]: 14.1% | Activity [6]: Active | Activity [7]: Active | Activity [8]: Active | Activity [9]: Active | Activity [10]: Active | Activity [11]: Active | growth inhibition (GI) [12]: Active | growth inhibition (GI) [13]: tde | growth inhibition (GI) [14]: Active | growth inhibition (GI) [15]: tde | growth inhibition (GI) [16]: Dose-dependent effect | growth inhibition (GI) [17]: Dose-dependent effect | GI50 [21]: 670 nM | GI50 [23]: 390 nM | Activity [24]: 4.9% | Activity [25]: 19.8% | Activity [26]: 29.1% | Activity [27]: 56.5% | Activity [28]: 38.1% | Activity [29]: 31.3% | Activity [30]: 12.4% | Activity [31]: 18.5% | Activity [32]: 21.7% | Activity [33]: 31.1% | Activity [34]: 23.6% | Activity [35]: 17.9% | Activity [36]: 5.3% | Activity [37]: 21.8% | Activity [38]: 33.5% | Activity [39]: 58.9% | Activity [40]: 42.7% | Activity [41]: 37.2% | Activity [42]: 10.4%
